Experimental findings from patent US20230094006A1, “PHARMACEUTICAL COMPOSITION CONTAINING MACROLIDE COMPOUND, PRODUCTION METHOD THEREFOR, AND METHOD USING SAME” (priority 2020, published 2023) are described below.

Values after ≈ are worked out from the molar mass of the structure shown. Where two headings read alike, the source gives them in different places.

Assay [1] relates to Mycobacterium tuberculosis (Mtb). Briefly: Mouse tuberculosis infection model, viable Mycobacterium tuberculosis in lung tissue. Type of assay: in vivo. The conditions noted are these: C57BL/6 mice, nasal infection 2×10^4 CFU; 100 mg/kg oral for 6 days from day 4; sacrifice day 10; vs PBS negative control, p<0.001. As to the method: C57BL/6 mice (n=16) were prepared to investigate the anti-tuberculous activity of arenicolide A. Mice were nasally infected with 2×10^4/CFU of Mycobacterium tuberculosis (Mtb), and the mice were randomly divided into two groups (each, n=8). From the 4th day, arenicolide A was orally administered at a dose of 100 mg/body weight kg for 6 days. Phosphate-buffered saline (PBS) was administered as a negative control. Mice were sacrificed on day 10 from the day of infection (FIG. 2A).

Assay [2] concerns Mycobacterium tuberculosis Mtb H37Rv strain. Briefly: Resazurin microtiter assay (REMA), standard strain.
Experimental: MIC was measured by using a resazurin microtiter assay (REMA). Briefly, 100 μl of 7H9 liquid medium was added to each well of a 96-well microtiter plate, and two-fold serial dilutions of antibiotics were directly added to each well. Plates were covered and incubated for 5 days at 37° C. Resazurin (0.01% (w/v)) was added to each well and the plates were incubated overnight. Fluorescence intensity was measured by using a SpectraMax M3 Multi-Mode Microplate Reader (Molecular Devices, CA, USA) (ex. 560/em. 590 nm).
The next assay relates to M. tuberculosis. Briefly: Resazurin microtiter MIC, arenicolide A and ethambutol alone and combined. Type of assay: cell-based. The conditions noted are these: Mycobacterium tuberculosis, 120 h.
In a further assay the test system is M. abscessus strain. Briefly: Mouse non-tuberculous Mycobacterium infection model, viable cells in lung tissue. Type of assay: in vivo. The conditions noted are these: mice, nasal infection 1×10^7 CFU M. abscessus; 100 mg/kg oral for 5 days from day 3; sacrifice day 7; vs negative control, p<0.001. The protocol:
As described in Example 2-2, 57BL/6 mice were nasally infected with 1×10^7/CFU of M. abscessus strain. From the 3rd day, arenicolide A was orally administered at a dose of 100 mg/body weight kg for 5 days. As a negative control, 2.5% (v/v) DMSO and 2.5% (v/v) ethanol were administered. Mice were sacrificed on day 7 from the day of infection. The number of viable tubercle bacilli in the lung tissue was investigated, and the results are shown in FIG. 3 (each, n=6, ***: p<0.001).

The test system of assay [3] is BCG (bacillus Calmette-Guerin) strain. Type of assay: in vivo, Mycobacterium bovis. The conditions noted are these: mice, nasal infection 1×10^6 CFU BCG; 100 mg/kg oral for 6 days from day 4; sacrifice day 10; vs negative control.
In assay [4] the test system is M. tuberculosis mc2 6230 strain. The assay can be described thus: Resazurin microtiter assay (REMA), dose-response curve. Type of assay: cell-based. The conditions noted are these: Mycobacterium tuberculosis, MC26230STRAIN, 120 h, M. tuberculosis mc2 6230, 7H9 liquid medium, 5 days at 37° C. For orientation: Alamar Blue is a resazurin reagent that responds to reducing activity.

For `CCC[C@H](O)[C@@H](OC)[C@H]1O[C@]1(C)[C@@H](O)C/C=C/[C@@H]1OC(=O)/C=C/C=C/[C@@H](OC)[C@H](O)/C=C/C(C)=C/[C@@H](C)CCC[C@@H](OC)C(O)/C=C/C(C)=C/[C@@H](C)[C@H](O)[C@H]1OC` (some centres unmarked) [arenicolide A], the “number of viable Mycobacterium tuberculosis in the lung tissue” value in assay [1] is recorded as “significantly reduced”. Also, the MIC50 (commonly the lowest concentration that inhibits either 50% of growth or 50% of the strains tested, depending on the study) was approximately 6.9 µM (≈ 5.55 µg/mL) in assay [2] and approximately 24.6 µM (≈ 19.8 µg/mL) in assay [4]. In the assay on M. tuberculosis, the minimum inhibitory concentration (MIC) (usually the least concentration at which growth counts as inhibited) stood at 0.78 µM. Also, in the assay on M. abscessus strain, the “number of viable cells in the lung tissue” value is “significantly decreased”. The “inhibitory activity against BCG bacteria (viable cells in lung tissue)” value in assay [3] was “effective inhibitory activity”.

With `CCC[C@@H]1O[C@@](C)([C@@H](O)C/C=C/[C@@H]2OC(=O)/C=C/C=C/[C@@H](OC)[C@H](O)/C=C/C(C)=C/C(C)CCC[C@@H](OC)[C@H](O)/C=C/C(C)=C/[C@@H](C)[C@H](O)[C@H]2OC)[C@H](O)[C@@H]1OC` (some centres unmarked) [arenicolide C], the “inhibitory activity against BCG bacteria (viable cells in lung tissue)” value in assay [3] is given as “effective inhibitory activity”.

For `CC[C@@H](CO)NCCN[C@@H](CC)CO` [ethambutol, reference compound], in the assay on M. tuberculosis (administered alone, Middlebrook 7H9 with ADC, 5 days at 37° C., resazurin, read-out: MIC), the minimal inhibitory concentration (MIC) was found to be 3.2 µM.
